Measurements from patent US20080075688A1, “Use of non-digestible polymeric foams to sequester ingested materials thereby inhibiting their absorption by the body” (The Procter & Gamble Company, priority 2003, published 2008).

Legend:
[1] = system: rats; assay: Fat excretion in rats on a high-fat diet (30% of calories as corn oil) for 9 days with XENICAL, Example 4; type: in vivo, rat; conditions: 400 ppm XENICAL without or with 0.5% HIPE foam in diet
Procedure: (§1) Three groups of rats were matched by weight and receive a high-fat diet (30% of calories as corn oil) for 9 days. One of the groups also received 400 ppm XENICAL® as part of the diet. The third group received both 400 ppm XENICAL® and 0.5% ground particulate HIPE foam from Example 1, Sample 1 as part of the diet. Total diet intake was measured throughout the study, and fecal output was measured in tail cups fitted to the animals during the last two days of the study. The pooled two-day collection of feces from each animal was analyzed for fat content according to AOAC method 954.04, published by AOAC International, Gaithersburg, Md.

[2] = system: rats; assay: Observer rating of oil on the fur of rats, Example 4; type: in vivo, rat
Procedure: as §1, with “Md. On days 5 and 7 of the study, the appearance of each animal was judged by two observers unaware of the dietary treatment of the animals. These observers assigned numerical values that increased with the amount of oil seen on the fur. A value of 1 was used to describe animals with no oil apparent on their fur. A value of 5 was used to describe animals with more than 90% of their fur coated with oil. Values of 2, 3, or 4, as appropriate, were assigned to animals with intermediate amounts of oil on the fur.” for “Md.”

## CCCCCCCCCCC[C@@H](C[C@@H]1OC(=O)[C@H]1CCCCCC)OC(=O)[C@H](CC(C)C)NC=O [XENICAL ®, tetrahydrolipstatin]
[1]
  Fat excretion versus the control group: significantly more fat than the control group
[1]; corn oil diet 9 days, feces of last two days, control 0.16
  Mean Total 48 hour Lipid Excretion: 2.6 g
[1]; corn oil diet 9 days, feces of last two days, control 3.9
  Excreted Fat (as % Ingested Fat): 59.1 % Ingested Fat
[2]; 400 ppm XENICAL only versus control and XENICAL + foam
  Oil on fur rating compared with the other groups: significantly different relative to the other two groups
[2]; days 5 and 7, two blinded observers, scale 1 (no oil apparent on fur) to 5 (more than 90% of fur coated), control 1.03
  Average Rating (oil on fur): 4.41
